# According to patent US20230257383A1, “COMPOUND SERVING AS BTK INHIBITOR, PREPARATION METHOD THEREFOR, AND USE THEREOF” (CHENGDU HYPERWAY PHARMACEUTICALS CO., LTD., priority 2020, published 2023):
# pIC50: −log10 of the molar value.
# Legend:
# TMD8 cell proliferation = test: In vitro cell proliferation inhibitory activity test (CTG), TMD8; format: cell-based; conditions: Homo sapiens, TMD8, 72 h, TMD8 cells
# Protocol: (§1) Test Example 4: In Vitro Cell Proliferation Inhibitory Activity Test
# (§2) Cells were cultured in 1640 medium, added with 10% inactivated FBS and 1% double antibiotics, and cultured at 37° C. and 5% CO2.
# (§3) (1) Cells were routinely cultured until the cell density was 80%-90%, and the cells were harvested when their number reached the requirement.
# (§4) (2) Cells were resuspended with corresponding culture medium, counted, and prepared into cell suspension at appropriate density.
# (§5) (3) The cell suspension was added to a 96-well plate, 100 μL per well.
# (§6) (4) Cells were cultured overnight in a 37° C., 5% CO2 incubator.
# (§7) (1) The compounds to be tested were diluted with DMSO to make a stock solution with a final concentration of 20 mM for later use.
# (§8) (2) The stock solution was diluted 10 times from 20 mM to 2 mM with DMSO, and then diluted 3 times from 2 mM to 9 concentrations.
# (§9) (3) The blank control wells were cells plus 0.5% DMSO, as high-reading control wells.
# (§10) (4) Wells with no cells and only medium were used as low-reading control wells.
# (§11) 4: Cell treatment with compound
# (§12) (1) 24 h after the cells were plated, the compounds acted alone, and 99 μL of growth medium was added to each well, followed by 1 μL of the compound prepared in step 3. The plate was shaken gently to mix uniformly, and then placed in a 37° C., 5% CO2 incubator.
# (§13) (2) The cell plate was placed in an incubator for 72 h.
# (§14) 5: Detection by CTG method
# (§15) (1) The cell plate to be tested was placed at room temperature for 30 min, and 100 μL of medium was discarded from each well.
# (§16) (2) 100 μL of CTG reagent (CelltiterGlo kit) was added to each well, placed on a fast shaker for 2 min, and stood at room temperature in the dark for 30 min.
# (§17) (3) The chemiluminescent signal value was read with the Envision instrument.
# (§18) IC50 was calculated by using GraphPad Prism 8 software. The IC50 (half inhibitory concentration) of the compound was derived using the following nonlinear fitting formula, and the results are shown in the following table:
# (§19) Y=Bottom+(Top−Bottom)/(1+10^((Log IC50−X)×HillSlope))
# (§20) X: log value of compound concentration, Y: inhibition rate (% inhibition)
# (§21) Inhibition rate (% inhibition)=(reading of high-reading control well-reading of compound well)/(reading of high-reading control well-reading of low-reading control well)×100
# BT474 cell proliferation = test: In vitro cell proliferation inhibitory activity test (CTG), BT474; format: cell-based; conditions: Homo sapiens, BT-474, BT474 cell proliferation
# Protocol: as §1, §2, §3, §4, §5, §6, §7, §8, §9, §10, §11, §12, §13, §14, §15, §16, §17, §18, §19, §20, §21
# [1] = Liver microsome metabolic stability test (rat); format: in vitro ADME; conditions: for microsomal CLint: liver microsomes, read-out: CLint (μL/min/mg) Rat
# Protocol: (§22) 1: To the sample wells of T0, T5, T10, T20, T30, T60 and NCF60, 10 μL of the test or reference working solution and 80 μL of microsome working solution (hepatic microsome with a protein concentration of 0.5 mg/mL) were added, and to Blank60 well, only the microsome working solution was added. Then samples of the Blank60, T5, T10, T20, T30 and T60 other than TO and NCF60 were placed in a 37° C. water bath and pre-incubated for about 10 min.
# (§23) 2: To the TO sample well, 300 μL of stop solution (containing 200 ng/mL tolbutamide and 200 ng/mL labetalol in acetonitrile solution) was added first, followed by 10 μL of NADPH regeneration system working solution.
# (§24) 3: After the pre-incubation of Blank60, T5, T10, T20, T30 and T60 incubation plates, 10 μL of NADPH regeneration system working solution was added to each sample well to start the reaction, and 10 μL of 100 mM potassium phosphate buffer was added to the NCF60 sample well.
# (§25) 4: After incubation for an appropriate time (such as 5, 10, 20, 30 and 60 min), to each test sample well and control well of the Blank60, T5, T10, T20, T30, T60 and NCF60 plates, 300 μL of stop solution was added to terminate the reaction.
# (§26) 5: All sample plates were shaken to mix well and centrifuged at 4000 rpm for 20 min, and 100 μL of the supernatant of the test sample or control sample was taken and diluted with 300 μL of pure water for LC-MS/MS analysis.
# (§27) 6: Data analysis: T1/2 and CLint(mic) (μL/min/mg) values were calculated according to the first-order elimination kinetics. The first-order elimination kinetics equation was: […]
# [2] = Liver microsome metabolic stability test (human); format: in vitro ADME; conditions: for microsomal CLint: liver microsomes, read-out: CLint (μL/min/mg) Human
# Protocol: as §22, §23, §24, §25, §26, §27
# [3] = Pharmacokinetic test, oral, SD rats; format: in vivo; conditions: oral 10 mg/kg
# Protocol: Each test compound was administered orally (10 mg/kg, 3 rats in each group) to SD rats for pharmacokinetic study. […] Animals were fasted overnight before oral administration, and fed again after 4 h of administration. […] At each collection time point, 3 whole blood samples were collected at a the collection volume of about 0.2-0.3 mL. […] The collected plasma was stored at −20° C. before analysis. 20 μL of plasma sample was added into a 1.6 mL 96-well deep-well plate, added with 200 μL of working internal standard solution (the same volume of vehicle was added to the blank instead of internal standard), vortexed for 1 min, and centrifuged at 5800 rpm for 10 min. 100 μL of the supernatant was added to a 96-well injection plate for LC-MS/MS analysis.
# DOHH2 cell proliferation = test: In vitro cell proliferation inhibitory activity test (CTG), DOHH2; format: cell-based; conditions: Homo sapiens, DOHH-2
# Protocol: as §1, §2, §3, §4, §5, §6, §7, §8, §9, §10, §11, §12, §13, §14, §15, §16, §17, §18, §19, §20, §21
pIC50 (BT474 cell proliferation),microsomal CLint [1] [µL/min/mg],microsomal CLint [2] [µL/min/mg],Structure (SMILES),further results
6.92,–,–,Nc1nccn2c(C34CCC(CO)(CC3)OC4)nc(-c3ccc(C(F)(F)c4c(F)cccc4F)cc3)c12 [Example 153],–
6.68,–,–,COc1cccc(C(F)(F)c2ccc(-c3nc(C45CCC(CO)(CC4)OC5)n4ccnc(N)c34)cc2)c1F [Example 129],–
6.57,–,–,Nc1nccn2c(C34CCC(CO)(CC3)OC4)nc(-c3ccc(C(F)(F)c4ccccc4F)c(F)c3)c12 [Example 156],–
–,< 9.6,< 9.6,Nc1nccn2c(C34CCC(CO)(CC3)OC4)nc(-c3ccc(C(=O)Nc4ccccn4)cc3)c12 [Example 34],pIC50 (TMD8 cell proliferation): 7.24
–,29.5,13.1,Nc1nccn2c(C3CCC(CO)OC3)nc(-c3ccc(Cc4ccccc4)cc3)c12 (centres unmarked) [Example 106],pIC50 (TMD8 cell proliferation): 7.31
–,26.1,10.9,Nc1nccn2c(C3CCC(CO)OC3)nc(-c3ccc(C(F)(F)c4ccccc4)cc3)c12 (centres unmarked) [Example 111],–
–,83.1,47.1,Nc1nccn2c(C3CCC(CO)OC3)nc(-c3ccc(Oc4cccc(C(F)(F)F)c4F)cc3)c12 (centres unmarked) [Example 19],–
< 6.00,–,–,Nc1nccn2c(C34CCC(CO)(CC3)OC4)nc(-c3ccc(C(c4ccccc4)(C(F)(F)F)C(F)(F)F)cc3)c12 [Example 159],–
5.31,–,–,Nc1nccn2c(C34CCC(CO)(CC3)OC4)nc(-c3ccc(C(F)(c4ccccc4)C(F)(F)F)cc3)c12 (centres unmarked) [Example 158],–
5.64,–,–,Nc1nccn2c(C34CCC(CO)(CC3)OC4)nc(-c3ccc(C(O)(c4ccccc4)C(F)(F)F)cc3)c12 (centres unmarked) [Example 157],–
6.76,–,–,Nc1nccn2c(C34CCC(CO)(CC3)OC4)nc(-c3ccc(C(F)(F)c4ccccc4)cc3F)c12 [Example 114],–
6.33,–,–,Nc1nccn2c(C34CCC(CO)(CC3)OC4)nc(-c3ccc(C(F)(F)c4cccc(C5CC5)c4)cc3)c12 [Example 143],–
–,81.6,36.8,Nc1nccn2c(C3CCC(CO)OC3)nc(-c3ccc(Oc4c(F)cccc4F)cc3)c12 (centres unmarked) [Example 64],–
–,46.1,31.1,Nc1nccn2c(C3CCC(CO)OC3)nc(-c3ccc(C(=O)c4ccccc4)cc3)c12 (centres unmarked) [Example 26],–
6.30,–,–,Nc1nccn2c(C34CCC(CO)(CC3)OC4)nc(-c3ccc(C(F)(F)c4ccc(F)c(Cl)c4)cc3)c12 [Example 140],–
6.68,–,–,Cc1cccc(C(F)(F)c2ccc(-c3nc(C45CCC(CO)(CC4)OC5)n4ccnc(N)c34)cc2)c1F [Example 139],–
6.42,–,–,Cc1c(F)cccc1C(F)(F)c1ccc(-c2nc(C34CCC(CO)(CC3)OC4)n3ccnc(N)c23)cc1 [Example 147],–
6.72,–,–,Nc1nccn2c(C34CCC(CO)(CC3)OC4)nc(-c3ccc(C(F)(F)c4c(F)c(F)cc(F)c4F)cc3)c12 [Example 144],–
–,63.9,36.9,Nc1nccn2c(C3CCC(CO)OC3)nc(-c3ccc(Oc4ccccc4)cc3)c12 (centres unmarked) [Example 16],% Remaining (60 min) Rat [1]: 14.6%; % Remaining (60 min) Human [2]: 31.8%

# Second part, the compound before the results:
Structure (SMILES),pIC50 (BT474 cell proliferation),microsomal CLint [1] [µL/min/mg],microsomal CLint [2] [µL/min/mg],further results
COc1cccc(Oc2ccc(-c3nc(C45CCC(CO)(CC4)OC5)n4ccnc(N)c34)c(F)c2)c1C#N [Example 115],–,–,–,pIC50 (TMD8 cell proliferation): 8.21
CS(=O)(=O)CCNCc1ccc(-c2ccc3ncnc(Nc4ccc(OCc5cccc(F)c5)c(Cl)c4)c3c2)o1 [Lapatinib],7.26,–,–,–
Nc1nccn2c(C3CCC(CO)OC3)nc(-c3ccc(Oc4cccc(F)c4F)cc3)c12 (centres unmarked) [Example 8],–,66.5,33.9,–
COc1cccc(Oc2ccc(-c3nc(C4CCC(CO)OC4)n4c(Cl)cnc(N)c34)cc2)c1F (centres unmarked) [Example 12],–,118,124,% Remaining (60 min) Rat [1]: 3.0%; % Remaining (60 min) Human [2]: 2.6%
Nc1nccn2c(C3CC[C@@H](CO)OC3)nc(-c3ccc(C(=O)Nc4ccccn4)cc3F)c12 (some centres unmarked) [Example 1-B],–,–,–,CLint (μL/min/mg) Rat [1]: 18.2 µL/min/mg; % Remaining (60 min) Rat [1]: 63.7%; CLint (μL/min/mg) Human [2]: <9.6 µL/min/mg; % Remaining (60 min) Human [2]: 99.9%
N#Cc1ccnc(NC(=O)c2ccc(-c3nc(C4CCC(CO)OC4)n4ccnc(N)c34)cc2)c1 (centres unmarked) [Example 103],–,< 9.6,< 9.6,Cl [3]: 16.67 mL/min/kg; pIC50 (TMD8 cell proliferation): 7.60
COc1cccc(Oc2ccc(-c3nc(C4CCC(CO)OC4)n4ccnc(N)c34)cc2)c1F (centres unmarked) [Example 5],–,122,38.8,–
"Nc1nccn2c(C3CCC(CO)OC3)nc(-c3ccc(C(=O)Nc4cc(C(F)(F)F)ccn4)cc3)c12 (single isomer, unassigned) [Example 109-P1]",–,–,–,pIC50 (TMD8 cell proliferation): 7.91
"O=C(c1ccc(Oc2ccccc2)cc1Cl)c1c[nH]c2ncnc(N[C@@H]3CC[C@@H](CO)OC3)c12 [ARQ-531, reference compound]",–,< 9.6,< 9.6,pIC50 (DOHH2 cell proliferation): 6.76; pIC50 (TMD8 cell proliferation): 7.13
Cc1ccnc(NC(=O)c2ccc(-c3nc(C4CCC(CO)OC4)n4ccnc(N)c34)cc2)c1 (centres unmarked) [Example 70],–,30.3,13.2,–
Cc1cccc(Oc2ccc(-c3nc(C4CCC(CO)OC4)n4ccnc(N)c34)cc2)c1F (centres unmarked) [Example 24],–,255,74.9,–
COc1cccc(Oc2ccc(-c3nc(C4CCC(CO)OC4)n4ccnc(N)c34)cc2)c1 (centres unmarked) [Example 101],–,29.8,< 9.6,–
"Nc1nccn2c([C@@H]3CC[C@H](CO)OC3)nc(-c3ccc(C(=O)Nc4ccccn4)cc3)c12 (single isomer, unassigned) [Example 2-A-P1]",–,–,–,AUC(0-∞) [3]: 77004 ng·h/mL; CLint (μL/min/mg) Rat [1]: <9.6 µL/min/mg; % Remaining (60 min) Rat [1]: 95.5%; CLint (μL/min/mg) Human [2]: <9.6 µL/min/mg; % Remaining (60 min) Human [2]: 122.5%
COc1ccc(F)cc1C(=O)NCc1ccc(-c2nn([C@@H](C)C(F)(F)F)c(N)c2C(N)=O)cc1 [LOXO-305],–,–,–,pIC50 (DOHH2 cell proliferation): 5.30; pIC50 (TMD8 cell proliferation): 6.74
Nc1nccn2c(C3CCC(CO)OC3)nc(-c3ccc(Oc4cccc(Cl)c4F)cc3)c12 (centres unmarked) [Example 9],–,114,48.4,% Remaining (60 min) Rat [1]: 3.2%; % Remaining (60 min) Human [2]: 24.5%
"COc1ccccc1C(=O)NCc1ccc(-c2nn(C3CCC(CO)OC3)c3ncnc(N)c23)cc1 (single isomer, unassigned) [Example 60-B]",–,–,–,Cl [3]: 188.82 mL/min/kg
